From patent US8247211B2, “Glycopeptide antibiotics” (American Cyanamid Company, priority 2001, dated 2012)
≈ marks a conversion by molar mass, not a printed value.

How the values were obtained:
Test in all cases: In vitro antibacterial evaluation: minimum inhibitory concentration (MIC), broth dilution method
Assay type in all cases: cell-based
[1] = system: Streptococcus sp.; details: broth dilution, 18 hours at 35° C.
Method in brief: (§1)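 Inoculum: 5×10^5 CFU/mL. Range: 64-0.06 μg/mL. Medium: Muller-Hinton II […]; NCCLS M7-A2 broth dilution. Endpoint: lowest concentration inhibiting growth. Strains include methicillin-, penicillin- and/or vancomycin-resistant clinical isolates.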

[2] = system: Staphylococcus sp.; details: broth dilution, 18 hours at 35° C.; for MIC Staphylococcus aureus-SMITH (GC 4543): strain SMITH GC 4543
Method in brief: as §1

[3] = system: Enterococcus sp.; details: broth dilution, 18 hours at 35° C.
Method in brief: as §1

[4] = system: Escherichia coli; details: broth dilution, 18 hours at 35° C.
[5] = Streptococcus agalactiae (GC 4564)
[6] = Streptococcus pneumoniae (ATCC 6301)
[7] = Streptococcus pneumoniae (GC 1894)
[8] = Streptococcus pneumoniae (GC 4565)
[9] = Streptococcus pyogenes (GC 4563)
[10] = Enterococcus faecalis (ATCC 29212)
[11] = Enterococcus faecalis (GC 2242)
[12] = Enterococcus faecalis (GC 2691)
[13] = Enterococcus faecalis (GC 3059)
[14] = Enterococcus faecalis (GC 4552)
[15] = Enterococcus faecalis (GC 4553)
[16] = Enterococcus faecalis (GC 4554)
[17] = Enterococcus faecalis (GC 6189)

CC(c1ccccc1)C1NC(=O)CNC(=O)C(CO)NC(=O)C(C(O)C2CNC(=N)N2C2OC(CO)C(O)C(O)C2O)NC(=O)C(C(O)C2CNC(=N)N2)NC(=O)C(Cc2ccc3oc(SCC(=O)c4ccc(Cl)cc4)nc3c2)NC1=O (stereo not drawn) [Example 49]
MIC Streptococcus agalactiae (GC 4564) [1, 5]: 4 µg/mL (≈ 3.39 µM)
MIC Streptococcus pneumoniae (ATCC 6301) [1, 6]: 8 µg/mL (≈ 6.78 µM)
MIC Streptococcus pneumoniae (GC 1894) [1, 7]: 8 µg/mL (≈ 6.78 µM)
MIC Streptococcus pneumoniae (GC 4565) [1, 8]: 8 µg/mL (≈ 6.78 µM)
MIC Streptococcus pyogenes (GC 4563) [1, 9]: 2 µg/mL (≈ 1.69 µM)
MIC Streptococcus agalactiae (GC 4564) [1]: 4 µg/mL (≈ 3.39 µM)
MIC Streptococcus pneumoniae (ATCC 6301) [1]: 8 µg/mL (≈ 6.78 µM)
MIC Streptococcus pneumoniae (GC 1894) [1]: 8 µg/mL (≈ 6.78 µM)
MIC Streptococcus pneumoniae (GC 4565) [1]: 8 µg/mL (≈ 6.78 µM)
MIC Streptococcus pyogenes (GC 4563) [1]: 2 µg/mL (≈ 1.69 µM)
MIC Coagulase Negative Staphylococcus (GC 4547) [2]: 4 µg/mL (≈ 3.39 µM)
MIC Coagulase Negative Staphylococcus (GC 4548) [2]: 2 µg/mL (≈ 1.69 µM)
MIC Coagulase Negative Staphylococcus (GC 4549) [2]: 1 µg/mL (≈ 0.847 µM)
MIC Coagulase Negative Staphylococcus (GC 4551) [2]: 4 µg/mL (≈ 3.39 µM)
MIC Staphylococcus aureus SMITH (GC 4543) [2]: 2 µg/mL (≈ 1.69 µM)
MIC Staphylococcus haemolyticus (GC 4546) [2]: 1 µg/mL (≈ 0.847 µM)
MIC Staphylococcus aureus-SMITH (GC 4543) [2]: 2 µg/mL (≈ 1.69 µM)
MIC Enterococcus avium (GC 4558) ([3]; Enterococcus avium (GC 4558)): 4 µg/mL (≈ 3.39 µM)
MIC Enterococcus faecalis (ATCC 29212) [3, 10]: 16 µg/mL (≈ 13.6 µM)
MIC Enterococcus faecalis (GC 2242) [3, 11]: 16 µg/mL (≈ 13.6 µM)
MIC Enterococcus faecalis (GC 2691) [3, 12]: 16 µg/mL (≈ 13.6 µM)
MIC Enterococcus faecalis (GC 3059) [3, 13]: 32 µg/mL (≈ 27.1 µM)
MIC Enterococcus faecalis (GC 4552) [3, 14]: 2 µg/mL (≈ 1.69 µM)
MIC Enterococcus faecalis (GC 4553) [3, 15]: 4 µg/mL (≈ 3.39 µM)
MIC Enterococcus faecalis (GC 4554) [3, 16]: 16 µg/mL (≈ 13.6 µM)
MIC Enterococcus faecalis (GC 6189) [3, 17]: 16 µg/mL (≈ 13.6 µM)
MIC Enterococcus faecium (GC 2243) ([3]; Enterococcus faecium (GC 2243)): 8 µg/mL (≈ 6.78 µM)
MIC Enterococcus faecium (GC 4556) ([3]; Enterococcus faecium (GC 4556)): 8 µg/mL (≈ 6.78 µM)
MIC Enterococcus faecium (GC 4557) ([3]; Enterococcus faecium (GC 4557)): 2 µg/mL (≈ 1.69 µM)
MIC Enterococcus avium (GC 4558) [3]: 4 µg/mL (≈ 3.39 µM)
MIC Enterococcus faecalis (ATCC 29212) [3]: 16 µg/mL (≈ 13.6 µM)
MIC Enterococcus faecalis (GC 2242) [3]: 16 µg/mL (≈ 13.6 µM)
MIC Enterococcus faecalis (GC 2691) [3]: 16 µg/mL (≈ 13.6 µM)
MIC Enterococcus faecalis (GC 3059) [3]: 32 µg/mL (≈ 27.1 µM)
MIC Enterococcus faecalis (GC 4552) [3]: 2 µg/mL (≈ 1.69 µM)
MIC Enterococcus faecalis (GC 4553) [3]: 4 µg/mL (≈ 3.39 µM)
MIC Enterococcus faecalis (GC 4554) [3]: 16 µg/mL (≈ 13.6 µM)
MIC Enterococcus faecalis (GC 6189) [3]: 16 µg/mL (≈ 13.6 µM)
MIC Enterococcus faecium (GC 2243) [3]: 8 µg/mL (≈ 6.78 µM)
MIC Enterococcus faecium (GC 4556) [3]: 8 µg/mL (≈ 6.78 µM)
MIC Enterococcus faecium (GC 4557) [3]: 2 µg/mL (≈ 1.69 µM)
MIC Escherichia coli (ATCC 25922) [4]: 16 µg/mL (≈ 13.6 µM)
MIC Escherichia coli (GC 4559) [4]: 8 µg/mL (≈ 6.78 µM)
MIC Escherichia coli (GC 4560) [4]: 4 µg/mL (≈ 3.39 µM)

COc1ccc(Oc2cccc(-c3nc4cc(CC5NC(=O)C(C(C)c6ccccc6)NC(=O)CNC(=O)C(CO)NC(=O)C(C(O)C6CNC(=N)N6C6OC(CO)C(O)C(O)C6O)NC(=O)C(C(O)C6CNC(=N)N6)NC5=O)ccc4o3)c2)cc1 (stereo not drawn) [Example 35]
MIC Streptococcus agalactiae (GC 4564) [1, 5]: 8 µg/mL (≈ 6.7 µM)
MIC Streptococcus pneumoniae (ATCC 6301) [1, 6]: 8 µg/mL (≈ 6.7 µM)
MIC Streptococcus pneumoniae (GC 1894) [1, 7]: 8 µg/mL (≈ 6.7 µM)
MIC Streptococcus pneumoniae (GC 4565) [1, 8]: 16 µg/mL (≈ 13.4 µM)
MIC Streptococcus pyogenes (GC 4563) [1, 9]: 2 µg/mL (≈ 1.67 µM)
MIC Streptococcus agalactiae (GC 4564) [1]: 8 µg/mL (≈ 6.7 µM)
MIC Streptococcus pneumoniae (ATCC 6301) [1]: 8 µg/mL (≈ 6.7 µM)
MIC Streptococcus pneumoniae (GC 1894) [1]: 8 µg/mL (≈ 6.7 µM)
MIC Streptococcus pneumoniae (GC 4565) [1]: 16 µg/mL (≈ 13.4 µM)
MIC Streptococcus pyogenes (GC 4563) [1]: 2 µg/mL (≈ 1.67 µM)
MIC Coagulase Negative Staphylococcus (GC 4547) [2]: 8 µg/mL (≈ 6.7 µM)
MIC Coagulase Negative Staphylococcus (GC 4548) [2]: 8 µg/mL (≈ 6.7 µM)
MIC Coagulase Negative Staphylococcus (GC 4549) [2]: 8 µg/mL (≈ 6.7 µM)
MIC Coagulase Negative Staphylococcus (GC 4551) [2]: 8 µg/mL (≈ 6.7 µM)
MIC Coagulase Negative Staphylococcus (GC 6257) [2]: 2 µg/mL (≈ 1.67 µM)
MIC Staphylococcus aureus SMITH (GC 4543) [2]: 8 µg/mL (≈ 6.7 µM)
MIC Staphylococcus haemolyticus (GC 4546) [2]: 8 µg/mL (≈ 6.7 µM)
MIC Staphylococcus aureus-SMITH (GC 4543) [2]: 8 µg/mL (≈ 6.7 µM)
MIC Enterococcus avium (GC 4558) ([3]; Enterococcus avium (GC 4558)): 8 µg/mL (≈ 6.7 µM)
MIC Enterococcus faecalis (ATCC 29212) [3, 10]: 16 µg/mL (≈ 13.4 µM)
MIC Enterococcus faecalis (GC 2242) [3, 11]: 16 µg/mL (≈ 13.4 µM)
MIC Enterococcus faecalis (GC 2691) [3, 12]: 16 µg/mL (≈ 13.4 µM)
MIC Enterococcus faecalis (GC 3059) [3, 13]: 32 µg/mL (≈ 26.8 µM)
MIC Enterococcus faecalis (GC 4552) [3, 14]: 32 µg/mL (≈ 26.8 µM)
MIC Enterococcus faecalis (GC 4553) [3, 15]: 8 µg/mL (≈ 6.7 µM)
MIC Enterococcus faecalis (GC 4554) [3, 16]: 32 µg/mL (≈ 26.8 µM)
MIC Enterococcus faecalis (GC 6189) [3, 17]: 16 µg/mL (≈ 13.4 µM)
MIC Enterococcus faecium (GC 2243) ([3]; Enterococcus faecium (GC 2243)): 8 µg/mL (≈ 6.7 µM)
MIC Enterococcus faecium (GC 4556) ([3]; Enterococcus faecium (GC 4556)): 32 µg/mL (≈ 26.8 µM)
MIC Enterococcus faecium (GC 4557) ([3]; Enterococcus faecium (GC 4557)): 4 µg/mL (≈ 3.35 µM)
MIC Enterococcus avium (GC 4558) [3]: 8 µg/mL (≈ 6.7 µM)
MIC Enterococcus faecalis (ATCC 29212) [3]: 16 µg/mL (≈ 13.4 µM)
MIC Enterococcus faecalis (GC 2242) [3]: 16 µg/mL (≈ 13.4 µM)
MIC Enterococcus faecalis (GC 2691) [3]: 16 µg/mL (≈ 13.4 µM)
MIC Enterococcus faecalis (GC 3059) [3]: 32 µg/mL (≈ 26.8 µM)
MIC Enterococcus faecalis (GC 4552) [3]: 32 µg/mL (≈ 26.8 µM)
MIC Enterococcus faecalis (GC 4553) [3]: 8 µg/mL (≈ 6.7 µM)
MIC Enterococcus faecalis (GC 4554) [3]: 32 µg/mL (≈ 26.8 µM)
MIC Enterococcus faecalis (GC 6189) [3]: 16 µg/mL (≈ 13.4 µM)
MIC Enterococcus faecium (GC 2243) [3]: 8 µg/mL (≈ 6.7 µM)
MIC Enterococcus faecium (GC 4556) [3]: 32 µg/mL (≈ 26.8 µM)
MIC Enterococcus faecium (GC 4557) [3]: 4 µg/mL (≈ 3.35 µM)
MIC Escherichia coli (GC 4560) [4]: 16 µg/mL (≈ 13.4 µM)
